{
  "source": "ChEMBL document CHEMBL1130291",
  "about": "“Synthesis of trimethylated phosphonium and arsonium analogues of the osmoprotectant glycine betaine; contrasted biological activities in two bacterial species” (Bioorg Med Chem Lett, 1997)",
  "type_in_all_cases": "functional, organism-based",
  "key": {"Sinorhizobium meliloti [1]": {"system": "Sinorhizobium meliloti", "assay": "Osmoprotective activity of compound in Rhizobium meliloti 102F34 by restoring its growth rate was evaluated; Highly toxic"}, "Escherichia coli [2]": {"system": "Escherichia coli", "assay": "Inhibitory activity against growth of Escherichia coli MC4100 in presence 0.8M NaCl; Strong inhibition"}, "Sinorhizobium meliloti [3]": {"system": "Sinorhizobium meliloti", "assay": "Inhibition of the growth of Rhizobium meliloti was observed at 1 mM by inoculation of 0.5 M NaCl; No growth was observed"}, "Escherichia coli [4]": {"system": "Escherichia coli", "assay": "Inhibitory activity against growth of Escherichia coli MC4100 without NaCl; No effect"}, "Sinorhizobium meliloti [5]": {"system": "Sinorhizobium meliloti", "assay": "Osmoprotective activity of compound in Rhizobium meliloti 102F34 by restoring its growth rate was evaluated; Highly osmoprotective"}},
  "note": "The source made the active and inactive calls. The rule behind the calls is not given here.",
  "data": [
    {"smiles": "C[As+](C)(C)CC(=O)[O-]", "values": [
      {"measurement": "Activity", "setting": "Sinorhizobium meliloti [1]", "result": "Toxic"},
      {"measurement": "Activity", "setting": "Escherichia coli [2]", "result": "No growth"},
      {"measurement": "Activity", "setting": "Sinorhizobium meliloti [3]", "result": "No growth"},
      {"measurement": "Activity", "setting": "Escherichia coli [4]", "result": "inactive"}
    ]},
    {"smiles": "C[P+](C)(C)CC(=O)[O-]", "values": [
      {"measurement": "Activity", "setting": "Sinorhizobium meliloti [1]", "result": "Toxic"},
      {"measurement": "Activity", "setting": "Escherichia coli [2]", "result": "No growth"},
      {"measurement": "Activity", "setting": "Sinorhizobium meliloti [3]", "result": "No growth"},
      {"measurement": "Activity", "setting": "Escherichia coli [4]", "result": "inactive"}
    ]},
    {"smiles": "C[N+](C)(C)CC(=O)O", "values": [
      {"measurement": "Activity", "setting": "Escherichia coli [2]", "result": "Highly osmoprotective"},
      {"measurement": "Activity", "setting": "Sinorhizobium meliloti [5]", "result": "Highly osmoprotective"},
      {"measurement": "Activity", "setting": "Escherichia coli [4]", "result": "inactive"}
    ]}
  ]
}
